In publication PMC10936602, “BaiJ and BaiB are key enzymes in the chenodeoxycholic acid 7α-dehydroxylation pathway in the gut microbe Clostridium scindens ATCC 35704” (Gut Microbes, 2024):

Columns and labels:
BaiB = biological target: T1, BaiB ([Clostridium] scindens, UniProt A0A494WIV0); test: LC/HRMS substrate depletion and detection of CoA conjugate; type: biochemical; conditions: CoA ligation; CoA and ATP; HEPES pH 7.5, anoxic, 18 h
T1 construct: recombinant in E. coli BL21-CodonPlus(DE3)-RIPL, pET28b+ or modified pET28b+, His and/or Strep tag
T1 sequence (A0A494WIV0 1-507): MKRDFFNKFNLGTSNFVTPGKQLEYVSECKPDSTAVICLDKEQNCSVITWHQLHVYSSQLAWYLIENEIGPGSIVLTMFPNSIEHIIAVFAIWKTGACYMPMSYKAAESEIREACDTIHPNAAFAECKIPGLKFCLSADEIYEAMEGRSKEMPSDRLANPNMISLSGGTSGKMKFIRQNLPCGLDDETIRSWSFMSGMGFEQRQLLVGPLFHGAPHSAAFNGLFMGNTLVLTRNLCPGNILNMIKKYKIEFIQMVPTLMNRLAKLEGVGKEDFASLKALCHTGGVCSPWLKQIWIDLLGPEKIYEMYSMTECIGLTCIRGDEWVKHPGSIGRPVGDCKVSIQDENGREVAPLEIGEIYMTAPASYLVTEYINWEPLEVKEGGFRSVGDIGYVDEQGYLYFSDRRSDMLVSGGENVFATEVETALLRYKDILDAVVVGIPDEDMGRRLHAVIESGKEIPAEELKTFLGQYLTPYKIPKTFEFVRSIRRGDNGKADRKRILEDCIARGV

BaiJ = biological target: T2, BaiJ ([Clostridium] scindens, UniProt B0NCC6); test: LC/HRMS product quantification, single enzyme; type: biochemical; conditions: reduction; NAD, NADP, NADH, NADPH, FMN, FAD, CoA, ATP, ADP 500 μM each; HEPES pH 7.5, 37 °C, anoxic
T2 construct: gene urdA; recombinant in E. coli BL21-CodonPlus(DE3)-RIPL, pET28b+ or modified pET28b+, His and/or Strep tag, FAD and FMN added before lysis
T2 sequence (B0NCC6 1-563): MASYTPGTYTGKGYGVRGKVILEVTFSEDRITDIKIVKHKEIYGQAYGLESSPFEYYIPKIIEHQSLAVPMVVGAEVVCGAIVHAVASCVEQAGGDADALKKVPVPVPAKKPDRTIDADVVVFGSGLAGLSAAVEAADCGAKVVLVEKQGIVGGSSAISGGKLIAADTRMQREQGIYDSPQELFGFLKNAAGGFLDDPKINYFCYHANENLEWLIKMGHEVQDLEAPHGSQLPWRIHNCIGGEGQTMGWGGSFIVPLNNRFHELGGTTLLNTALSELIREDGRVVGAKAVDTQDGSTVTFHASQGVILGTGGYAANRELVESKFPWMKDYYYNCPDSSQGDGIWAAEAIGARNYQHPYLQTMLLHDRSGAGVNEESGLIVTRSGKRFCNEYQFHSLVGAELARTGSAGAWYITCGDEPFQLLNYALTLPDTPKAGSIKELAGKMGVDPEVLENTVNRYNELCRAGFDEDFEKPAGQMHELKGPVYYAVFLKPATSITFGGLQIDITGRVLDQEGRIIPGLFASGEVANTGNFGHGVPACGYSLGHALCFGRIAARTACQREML

| Structure (SMILES) | LC/HRMS substrate depletion and detection of CoA conjugate (BaiB) | LC/HRMS product quantification, single enzyme (BaiJ) |
| --- | --- | --- |
| C[C@H](CCC(=O)O)[C@H]1CC[C@H]2[C@@H]3[C@H](O)CC4=CC(=O)CC[C@]4(C)[C@H]3CC[C@]12C [3-oxo-Δ^4-CDCA] | the concentration of 3-oxo-Δ^4-CDCA decreased significantly in the reaction with BaiB |  |
| C[C@H](CCC(=O)O)[C@H]1CC[C@H]2[C@@H]3CCC4=CC(=O)CC[C@]4(C)[C@H]3CC[C@]12C [3-oxo-Δ^4-LCA] |  | BaiJ reduces 3-oxo-Δ^4-LCA and forms 3-oxo-allo-LCA as the only reduced product |
